Target: T1, ATM (Homo sapiens, UniProt Q13315)
T1 construct: detecting phosphorylation of Chk2 in a human non-small cell lung cancer cell line NCI-H460 (ATCC company); host or cells: NCI-H460 human non-small cell lung cancer cells
Assay: ATM inhibition test (phosphorylation of Chk2 generated by ionizing radiation, AlphaScreen SureFire)
Assay type: cell-based
Settings: phosphorylated Chk2 in NCI-H460 cells, ionizing radiation 8Gy, 1 hour after test compound treatment; read-out: ATM inhibitory activity
Outline: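 In NCI-H460 cells, radiation-triggered Chk2 phosphorylation (8Gy, 1 h) is detected by AlphaScreen SureFire following 1 h compound exposure.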

T1 sequence (Q13315 whole entry): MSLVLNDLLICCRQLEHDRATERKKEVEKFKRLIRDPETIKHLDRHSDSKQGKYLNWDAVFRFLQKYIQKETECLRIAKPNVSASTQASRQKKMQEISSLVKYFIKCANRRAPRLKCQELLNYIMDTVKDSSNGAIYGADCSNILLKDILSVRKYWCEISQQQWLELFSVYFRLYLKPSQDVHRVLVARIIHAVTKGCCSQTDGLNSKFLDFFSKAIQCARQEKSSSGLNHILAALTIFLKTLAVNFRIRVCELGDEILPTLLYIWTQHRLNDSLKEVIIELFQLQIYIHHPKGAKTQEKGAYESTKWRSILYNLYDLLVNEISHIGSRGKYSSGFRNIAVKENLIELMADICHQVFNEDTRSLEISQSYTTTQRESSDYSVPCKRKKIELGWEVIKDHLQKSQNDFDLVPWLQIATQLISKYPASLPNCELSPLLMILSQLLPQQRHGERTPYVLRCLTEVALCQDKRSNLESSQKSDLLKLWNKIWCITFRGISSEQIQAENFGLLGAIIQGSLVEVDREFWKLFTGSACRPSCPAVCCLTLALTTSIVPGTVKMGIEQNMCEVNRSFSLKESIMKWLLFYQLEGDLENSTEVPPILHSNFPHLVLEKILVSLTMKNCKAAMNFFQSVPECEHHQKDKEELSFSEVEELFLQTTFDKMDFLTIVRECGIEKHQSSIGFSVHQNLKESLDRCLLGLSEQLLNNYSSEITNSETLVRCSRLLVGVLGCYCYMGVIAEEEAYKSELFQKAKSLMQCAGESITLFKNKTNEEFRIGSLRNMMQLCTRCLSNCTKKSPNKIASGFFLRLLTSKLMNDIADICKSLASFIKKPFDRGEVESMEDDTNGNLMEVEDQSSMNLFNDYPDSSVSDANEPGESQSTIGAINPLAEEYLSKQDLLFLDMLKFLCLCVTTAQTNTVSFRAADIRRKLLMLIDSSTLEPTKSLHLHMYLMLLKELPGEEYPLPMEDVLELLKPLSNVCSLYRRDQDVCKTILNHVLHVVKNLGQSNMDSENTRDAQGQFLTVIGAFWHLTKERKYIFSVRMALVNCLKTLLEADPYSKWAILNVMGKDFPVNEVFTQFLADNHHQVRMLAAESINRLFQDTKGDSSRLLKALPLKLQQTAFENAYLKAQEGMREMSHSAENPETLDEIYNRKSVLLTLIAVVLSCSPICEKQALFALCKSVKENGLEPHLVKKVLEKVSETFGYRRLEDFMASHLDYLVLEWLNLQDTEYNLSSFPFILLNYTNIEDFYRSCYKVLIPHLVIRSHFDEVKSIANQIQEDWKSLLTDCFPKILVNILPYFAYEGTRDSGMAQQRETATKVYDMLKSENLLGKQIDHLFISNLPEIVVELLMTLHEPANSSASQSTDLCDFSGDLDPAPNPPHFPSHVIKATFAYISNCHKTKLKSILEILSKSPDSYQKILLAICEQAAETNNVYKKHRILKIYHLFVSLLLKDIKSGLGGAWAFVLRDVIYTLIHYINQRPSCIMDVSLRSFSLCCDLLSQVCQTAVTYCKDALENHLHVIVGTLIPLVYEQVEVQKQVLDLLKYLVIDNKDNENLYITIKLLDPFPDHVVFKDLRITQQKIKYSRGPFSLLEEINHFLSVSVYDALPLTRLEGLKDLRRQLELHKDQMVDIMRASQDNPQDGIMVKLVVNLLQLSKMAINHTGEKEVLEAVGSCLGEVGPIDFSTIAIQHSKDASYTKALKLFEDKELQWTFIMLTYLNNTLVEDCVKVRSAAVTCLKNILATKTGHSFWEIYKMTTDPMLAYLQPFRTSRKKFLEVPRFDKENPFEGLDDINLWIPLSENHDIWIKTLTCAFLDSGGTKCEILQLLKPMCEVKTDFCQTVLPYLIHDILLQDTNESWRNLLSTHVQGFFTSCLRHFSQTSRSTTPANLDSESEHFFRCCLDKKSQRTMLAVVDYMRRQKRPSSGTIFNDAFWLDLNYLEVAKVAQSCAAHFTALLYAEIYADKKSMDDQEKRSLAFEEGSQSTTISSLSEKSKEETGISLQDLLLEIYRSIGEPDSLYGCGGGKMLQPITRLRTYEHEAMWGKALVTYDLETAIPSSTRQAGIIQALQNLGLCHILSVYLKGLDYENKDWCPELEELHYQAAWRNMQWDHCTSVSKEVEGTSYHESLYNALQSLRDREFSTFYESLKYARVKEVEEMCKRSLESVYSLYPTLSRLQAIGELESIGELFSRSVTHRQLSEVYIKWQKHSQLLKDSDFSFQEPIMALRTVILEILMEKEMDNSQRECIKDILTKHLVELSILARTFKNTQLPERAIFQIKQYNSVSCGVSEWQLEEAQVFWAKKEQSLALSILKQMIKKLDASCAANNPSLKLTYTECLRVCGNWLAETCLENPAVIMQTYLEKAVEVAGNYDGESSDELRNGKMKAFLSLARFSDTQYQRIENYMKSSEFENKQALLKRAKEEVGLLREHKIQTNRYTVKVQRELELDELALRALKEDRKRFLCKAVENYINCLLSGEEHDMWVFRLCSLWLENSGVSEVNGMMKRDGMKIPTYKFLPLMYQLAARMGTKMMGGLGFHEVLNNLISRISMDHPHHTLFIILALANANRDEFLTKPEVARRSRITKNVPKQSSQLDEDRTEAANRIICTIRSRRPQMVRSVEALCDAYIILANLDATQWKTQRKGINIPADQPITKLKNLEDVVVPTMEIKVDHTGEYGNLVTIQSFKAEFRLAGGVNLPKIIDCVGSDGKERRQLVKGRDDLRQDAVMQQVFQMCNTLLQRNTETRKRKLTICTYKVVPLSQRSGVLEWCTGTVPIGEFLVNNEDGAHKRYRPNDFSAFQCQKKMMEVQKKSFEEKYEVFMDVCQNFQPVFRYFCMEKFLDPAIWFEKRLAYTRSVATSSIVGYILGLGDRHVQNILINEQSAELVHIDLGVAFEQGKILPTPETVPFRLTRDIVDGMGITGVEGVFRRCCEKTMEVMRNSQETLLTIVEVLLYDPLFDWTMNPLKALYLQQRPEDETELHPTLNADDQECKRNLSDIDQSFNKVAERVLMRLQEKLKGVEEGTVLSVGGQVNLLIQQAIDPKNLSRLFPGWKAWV

SMILES | IC50
O=c1cc(N2CCOCC2)nc(-c2cccc3c2Oc2ccc(NCc4cc(Cl)ccn4)cc2C3)[nH]1 [Example 2-52-3, 2-(7-(((4-Chloropyridin-2-yl)methyl)amino)-9H-xanthen-4-yl)-6-morpholinopyrimidine-4(3H)-one] | 100 to 500 nM
COC[C@@H](Nc1ccc2c(c1)Sc1cccc(-c3cc(N4CCOCC4)cc(=O)[nH]3)c1S2)C(=O)O [Example 1-49, (R)-3-methoxy-2-((6-(4-morpholino-6-oxo-1,6-dihydropyridin-2-yl)thianthren-2-yl)amino)propionic acid] | 500 to 2000 nM
COCCN1CCOC(C(Nc2ccc3c(c2)Sc2cccc(-c4cc(N5CCOCC5)cc(=O)[nH]4)c2S3)c2ccc(C)cn2)C1 (single isomer, unassigned) [Example 1-56-9, 6-(7-(((4-(2-Methoxyethyl)morpholin-2-yl)(5-methylpyridin-2-yl)methyl)amino)thianthren-1-yl)-4-morpholino pyridin-2(1H)-one] | < 100 nM
CCN(CC)CC(Nc1ccc2c(c1)Sc1cccc(-c3cc(N4CCOCC4)cc(=O)[nH]3)c1S2)c1cnc(C)cn1 (stereo not shown) [Example 1-33, 6-(7-((2-(diethylamino)-1-(5-methylpyrazin-2-yl)ethyl)amino)thianthren-1-yl)-4-morpholinopyridin-2(1H)-one] | 100 to 500 nM
CN1CCN(C(=O)CNc2ccc3c(c2)Sc2cccc(-c4cc(N5CCOCC5)cc(=O)[nH]4)c2S3)CC1 [Example 1-18-3] | 500 to 2000 nM
CC(Nc1ccc2c(c1)Sc1cccc(-c3cc(N4CCOCC4)cc(=O)[nH]3)c1S2)c1cc(C#N)ncn1 (single isomer, unassigned) [Example 1-12-146-2, 6-(1-((6-(4-morpholino-6-oxo-1,6-dihydropyridin-2-yl)thianthren-2-yl)amino)ethyl)pyrimidine-4-carbonitrile] | 100 to 500 nM
CC(CN1CC(C)OC(C)C1)Nc1ccc2c(c1)Sc1cccc(-c3cc(N4CCOCC4)cc(=O)[nH]3)c1S2 (stereo not shown) [Example 1-13-11, 6-(7-((1-(2,6-Dimethylmorpholino)propan-2-yl)amino)thianthren-1-yl)-4-morpholino pyridin-2(1H)-one] | < 100 nM
O=c1cc(N2CCOCC2)cc(-c2cccc3c2Oc2ccc(NCc4ccnc(N5CCOCC5)n4)cc2C3)[nH]1 [Example 2-14-69, 4-Morpholino-6-(7-(((2-morpholinopyrimidin-4-yl)methyl)amino)-9H-xanthen-4-yl)pyridin-2(1H)-one] | 100 to 500 nM
CN(C)c1cnc(CN(Cc2cnc(N(C)C)cn2)c2ccc3c(c2)Cc2cccc(-c4cc(N5CCOCC5)cc(=O)[nH]4)c2O3)cn1 [Example 2-2-76, 6-(7-(bis((5-(dimethylamino)pyrazin-2-yl)methyl)amino)-9H-xanthen-4-yl)-4-morpholinopyridin-2(1H)-one] | < 100 nM
CC(Nc1ccc2c(c1)Sc1cccc(-c3cc(N4CCOCC4)cc(=O)[nH]3)c1S2)[C@H](C)N1CCOCC1 (stereo partly shown) [Example 1-21-5, 6-(7-(((3 S)-3-morpholinobutan-2-yl)amino)thianthren-1-yl)-4-morpholinopyridin-2(1H)-one] | 100 to 500 nM
COC[C@H](CN1[C@H](C)CCC[C@@H]1C)Nc1ccc2c(c1)Sc1cccc(-c3cc(N4CCOCC4)cc(=O)[nH]3)c1S2 [Example 1-46-13, 6-(7-(((S)-1-((2R,6S)-2,6- Dimethylpiperidin-1-yl)-3-methoxypropan-2-yl)amino)thianthren-1-yl)-4-morpholino pyridin-2(1H)-one] | 100 to 500 nM
COc1ncccc1CNc1ccc2c(c1)Cc1cccc(-c3cc(N4CCOCC4)cc(=O)[nH]3)c1S2 [Example 3-8-8, 6-(7-(((2-Methoxypyridin-3-yl)methyl)amino)-9H-thioxanthen-4-yl)-4-morpholino pyridin-2 (1H)-one] | 500 to 2000 nM
CC(CN1CCN(Cc2ccccc2)CC1)Nc1ccc2c(c1)Sc1cccc(-c3cc(N4CCOCC4)cc(=O)[nH]3)c1S2 (stereo not shown) [Example 1-15-1, 6-(7-((1-(4-Benzylpiperazin-1-yl)propan-2-yl)amino)thianthren-1-yl)-4-morpholinopyridin-2(1H)-one] | 100 to 500 nM
